Experimental data: ChEMBL document CHEMBL6087458, “The Discovery of a Novel AXL/Triple Angiokinase Inhibitor Based on 6-Chloro-Substituted Indolinone and Side Chain Methyl Substitution Inhibiting Pancreatic Cancer Growth and Metastasis” (J Med Chem, 2025)
pIC50: −log10 of the molar value.

Key:
[1] = Cytotoxicity against mouse NIH/3T3 cells assessed as cell viability incubated for 72 hrs by MTT assay; format: toxicity, cell-based, NIH3T3
[2] = Cytotoxicity against human HUVEC cells assessed as cell viability incubated for 72 hrs by MTT assay; format: toxicity, cell-based
BXPC-3 [3] = assay: Antitumor activity against human BXPC-3 cells xenografted in mouse assessed as tumor growth inhibition at 50 mg/kg, po administered for 14 days; format: functional; settings: BXPC-3, 336 h, time 14 day, read-out: TGI
BXPC-3 [4] = assay: Antitumor activity against human BXPC-3 cells xenografted in mouse assessed as reduction in tumor weight at 50 mg/kg, po administered for 14 days; format: functional; parameters: scale not given: the % may be the effect or the level left; settings: time 14 day
[5] = Cytotoxicity against human HK-2 cells assessed as inhibition of cell growth; format: toxicity, cell-based
[6] = Cytotoxicity against human HaCaT cells assessed as inhibition of cell growth; format: toxicity, cell-based
[7] = Cytotoxicity against human MCF-10A cells assessed as inhibition of cell growth; format: toxicity, cell-based
[8] = Cytotoxicity against human HEK293 cells assessed as inhibition of cell growth; format: toxicity, cell-based
[9] = Metabolic stability in rat liver microsome assessed as half life measured upto 240 mins by HPLC analysis; format: ADME; settings: liver microsomes
[10] = Tmax in Sprague-Dawley rat at 50 mg/kg, po; format: ADME, organism-based; settings: in vivo
[11] = Cmax in Sprague-Dawley rat at 50 mg/kg, po; format: ADME, organism-based; settings: in vivo
[12] = AUC (0 to last) in Sprague-Dawley rat at 5 mg/kg, iv; format: ADME, organism-based; settings: in vivo, iv, 5 mg/kg
[13] = AUC (0 to last) in Sprague-Dawley rat at 50 mg/kg, po; format: ADME, organism-based; settings: in vivo, po, 50 mg/kg
[14] = Half life in Sprague-Dawley rat at 5 mg/kg, iv; format: ADME, organism-based; settings: in vivo
[15] = Half life in Sprague-Dawley rat at 50 mg/kg, po; format: ADME, organism-based; settings: in vivo
[16] = Clearance in Sprague-Dawley rat at 5 mg/kg, iv; format: ADME, organism-based; settings: in vivo
[17] = Volume of distribution at steady state in Sprague-Dawley rat at 5 mg/kg, iv; format: ADME, organism-based; settings: in vivo, read-out: Vdss
[18] = Oral bioavailability in Sprague-Dawley rat at 50 mg/kg; format: ADME, organism-based; settings: in vivo, po, 50 mg/kg
[19] = target: Tyrosine-protein kinase receptor UFO (Homo sapiens) (UniProt P30530); settings: dose 100.0 nM
Description: Inhibition of AXL (unknown origin) at 100 nM by envision reader analysis relative to control

BXPC-3 [20] = assay: cells; settings: Homo sapiens, BXPC-3, 72 h
Description: Antiproliferative activity against human BXPC-3 cells assessed as cell viability incubated for 72 hrs by MTT assay

MDA-MB-231 = assay: cells; settings: Homo sapiens, MDA-MB-231, 72 h
Description: Antiproliferative activity against human MDA-MB-231 cells assessed as cell viability incubated for 72 hrs by MTT assay

MKN-45 = assay: cells; settings: Homo sapiens, MKN-45, 72 h
Description: Antiproliferative activity against human MKN-45 cells assessed as cell viability incubated for 72 hrs by MTT assay

NCI-H1975 = assay: cells; settings: Homo sapiens, NCI-H1975, 72 h
Description: Antiproliferative activity against human NCI-H1975 cells assessed as cell viability incubated for 72 hrs by MTT assay

SW480 = assay: cells; settings: Homo sapiens, SW480, 72 h
Description: Antiproliferative activity against human SW480 cells assessed as cell viability incubated for 72 hrs by MTT assay

PC-9 = assay: cells; settings: Homo sapiens, PC-9, 72 h
Description: Antiproliferative activity against human PC-9 cells assessed as cell viability incubated for 72 hrs by MTT assay

A549 = assay: cells; settings: Homo sapiens, A549, 72 h
Description: Antiproliferative activity against human A549 cells assessed as cell viability incubated for 72 hrs by MTT assay

A549/TR = assay: cells; settings: Homo sapiens, 72 h
Description: Antiproliferative activity against human A549/Taxol cells assessed as cell viability incubated for 72 hrs by MTT assay

cells = settings: Homo sapiens, CDDP-resistant A549 cell, 72 h
Description: Antiproliferative activity against human CDDP-resistant A549 cell assessed as cell viability incubated for 72 hrs by MTT assay

[21] = system: Osimertinib-resistant NCI-H1975 cell; assay: cells; settings: Homo sapiens, 72 h

Chain of Tyrosine-protein kinase receptor UFO (Homo sapiens) (P30530 whole entry): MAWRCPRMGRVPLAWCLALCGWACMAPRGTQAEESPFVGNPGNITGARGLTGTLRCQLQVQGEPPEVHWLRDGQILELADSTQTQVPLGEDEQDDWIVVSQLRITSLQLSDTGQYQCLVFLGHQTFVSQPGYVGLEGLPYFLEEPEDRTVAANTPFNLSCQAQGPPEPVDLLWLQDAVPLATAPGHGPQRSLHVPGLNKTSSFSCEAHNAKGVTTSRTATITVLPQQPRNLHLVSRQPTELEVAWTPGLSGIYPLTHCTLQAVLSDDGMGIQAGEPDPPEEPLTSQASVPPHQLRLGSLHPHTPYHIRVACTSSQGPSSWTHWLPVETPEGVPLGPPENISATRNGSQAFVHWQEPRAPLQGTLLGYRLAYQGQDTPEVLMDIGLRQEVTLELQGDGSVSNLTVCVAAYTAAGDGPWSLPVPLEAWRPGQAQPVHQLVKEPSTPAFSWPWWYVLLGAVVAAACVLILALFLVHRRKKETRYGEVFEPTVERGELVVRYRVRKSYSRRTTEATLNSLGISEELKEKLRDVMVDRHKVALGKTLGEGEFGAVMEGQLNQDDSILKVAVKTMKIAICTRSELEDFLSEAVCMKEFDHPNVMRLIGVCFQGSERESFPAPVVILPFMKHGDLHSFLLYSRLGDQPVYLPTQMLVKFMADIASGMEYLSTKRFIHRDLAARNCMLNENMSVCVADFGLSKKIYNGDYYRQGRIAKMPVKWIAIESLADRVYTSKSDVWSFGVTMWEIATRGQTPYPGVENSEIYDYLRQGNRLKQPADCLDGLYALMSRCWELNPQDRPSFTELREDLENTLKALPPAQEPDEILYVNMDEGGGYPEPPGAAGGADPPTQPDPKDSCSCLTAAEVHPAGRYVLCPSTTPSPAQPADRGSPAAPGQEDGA

half-life [9]: 0.194 h | Tmax [10]: 2 h | Cmax [11]: 64.2 ng/mL | AUClast [12]: 749 ng·h/mL | AUClast [13]: 64.2 ng·h/mL | half-life [14]: 1.76 h | half-life [15]: 3.99 h | clearance [16]: 111 mL/min/kg | Vd [17]: 7.91 L/kg | F [18]: 7.91% | inhibition [19]: 32.1% | pIC50 (BXPC-3 [20]): 5.27 | pIC50 (MDA-MB-231): < 5.00 | pIC50 (MKN-45): < 5.00 | pIC50 (NCI-H1975): < 5.00 | pIC50 (SW480): < 5.00 | pIC50 (PC-9): < 5.00 | pIC50 (A549): < 5.00 | pIC50 (A549/TR): 5.00 | pIC50 (cells): < 5.00 | pIC50 [21]: < 5.00
SMILES: COC(=O)c1ccc2c(c1)NC(=O)/C2=C(\Nc1ccc(N(C)C(=O)CN2CCN(C)CC2)cc1)c1ccccc1 [NINTEDANIB]
IC50 at 72 h [1]: 4.34 µM | IC50 at 72 h [2]: 3.69 µM | inhibition in vivo at 50 mg/kg (BXPC-3 [3]): 68.1% | Activity (BXPC-3 [4]): 55.84% | pIC50 [5]: 5.54 | pIC50 [6]: < 5.00 | pIC50 [7]: < 5.00 | pIC50 [8]: 5.46
